Bounds are passed on as bounds.

In the experiment the target is LPA2 receptor (Homo sapiens, UniProt Q9HBW0). The experiment is described as follows: LPA2R-calciumflux assay. The experiment is classed as cell-based. As to conditions: U2OS cells recombinant expressing LPA2R; LPA-induced intracellular calcium signal (FLIPR Tetra); 10 concentrations from 30 uM to 1 nM, 1% DMSO. The text has this: Description of the LPA2R Assay
Chain of LPA2 receptor (Q9HBW0 whole entry): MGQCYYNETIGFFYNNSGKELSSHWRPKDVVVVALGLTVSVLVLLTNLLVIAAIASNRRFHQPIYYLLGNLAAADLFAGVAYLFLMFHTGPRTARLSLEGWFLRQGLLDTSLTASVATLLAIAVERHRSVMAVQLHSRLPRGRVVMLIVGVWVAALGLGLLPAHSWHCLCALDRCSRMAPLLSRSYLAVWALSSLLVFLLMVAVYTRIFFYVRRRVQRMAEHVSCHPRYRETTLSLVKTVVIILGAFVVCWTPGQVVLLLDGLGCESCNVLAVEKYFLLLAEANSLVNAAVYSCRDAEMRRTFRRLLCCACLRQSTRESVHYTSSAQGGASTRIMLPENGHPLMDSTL
Cell Cultivation/Propagation
LPA2R-calciumflux Assay Protocol
The assay detects intra cellular calcium which is generated by cells upon activation of the LPA2 receptor by its ligand LPA. This transient calcium mobilisation can be monitored using a commercial calcium detection kit (e.g. from Molecular Devices). The main component of such a kit is a dye, which becomes fluorescent when calcium is present—a transient fluorescence signal after laddition of a ligand to a test well are the result. Readers like the FLIPR (from Molecular Devices) can be used to monitor such transient “Ca-flux” signals.
The signals are calculated according to peak maximum minus base line. Compounds which are antogonists of LPA lead to a decreased mobilisation of intracellular calcium and thus to a lower signal. The assay is performed in microplates (384 wells per plate).
The assay itself is run according to the following procedure: • 50 uL seed cells (10000 cells/well in DMEM buffer) • Incubate 24 h at 37° C., 10% CO2 • aspirate medium • 50 uL add calcium dye 1×HBSS/HEPES buffer • incubate 1 h at 37° C. (“loading”) • equilibrate 10 min at RT • 5 uL add compounds in HEPES buffer • shake 10 sec. @ 1000 rpm • incubate 15 min at RT • 20 uL add LPA (in the FLIPR Tetra) in KREBS-Puffer/BSA & measurement
The cells are seeded in DMEM buffer (DMEM, 10% FCS, 10 mM HEPES, 1% Pen/Strep).
Dye loading is done in HBSS/HEPES buffer (100 mL 10×HBSS+20 mL 1M HEPES+880 mL water, pH 7.4)
The LPA is added in Krebs/BSA buffer (120 mM NaCl, 5 mM KCl, 0.62 mM MgSO4, 1.8 mM CaCl2, 10 mM HEPES, 6 mM D(+)-Glucose, 0.2% BSA, pH 7.4).
The compounds are pre-diluted in HEPES buffer (20 mM, pH 7.4), whereby the final DMSO content in the assay is kept at 1%. The compounds are pre-diluted in order to generate dose response series on the microplates. The dose response series consist of 10 concentrations for each compound from 30 uM final to 1 nM final. From all compound wells the resulting signals are referred to control wells (located on each plate besides the compound wells) in terms of % activity.
[formula] From these % activity values—along with the corresponding compound concentrations—IC50 values are fitted for each compound using standard fitting programs such as Graphpad Prism. Here the method “log(inhibitor) vs. response—Variable slope” is used. Reader Settings (FLIPR Tetra) • ExcWLength:470—495 • Em.Wlength: 515—575 • Gain: 50 • Exp. Time: 0,4 • Exc.Intensity: 80 • READ with TF • First read interval: 1,00 s • Number of first reads: 240 • Reads before dispense: 10 • Second read interval: 1,00 s • Number of second reads: 0 • Save Images No
Take `O=C1CC(O)(C(F)(F)F)c2c(C3CC3)n[nH]c2N1` (stereo not drawn) [Compound 16, 3-Cyclopropyl-4-hydroxy-4-trifluoromethyl-1,4,5,7-tetrahydro-pyrazolo[3,4-b]pyridin-6-one]: the IC50 (commonly the concentration that gives 50% inhibition) is more than 10 µM.
Under `Cn1nc(-c2cccs2)c2c1NC(=O)CC2(O)C(F)(F)F` (stereo not drawn) [Compound 7, 4-Hydroxy-1-methyl-3-thiophen-2-yl-4-trifluoromethyl-1,4,5,7-tetrahydro-pyrazolo[3,4-b]pyridin-6-one] stands more than 10 µM.
Under `O=C1CC(O)(C(F)(F)F)c2c(-c3ccncc3)n[nH]c2N1` (stereo not drawn) [Compound 22, 4-Hydroxy-3-pyridin-4-yl-4-trifluoromethyl-1,4,5,7-tetrahydro-pyrazolo[3,4-b]pyridin-6-one] stands less than 1 µM.
Under `O=C1CC(O)(C(F)(F)F)c2c(-c3ccco3)n[nH]c2N1` (stereo not drawn) [Compound 30, 3-Furan-2-yl-4-hydroxy-4-trifluoromethyl-1,4,5,7-tetrahydro-pyrazolo[3,4-b]pyridin-6-one] stands more than 10 µM; under `O=C1C[C@@](O)(C(F)(F)F)c2c(-c3cccc(F)c3)n[nH]c2N1` [Compound 20, (−)-3-(3-Fluoro-phenyl)-4-hydroxy-4-trifluoromethyl-1,4,5,7-tetrahydro-pyrazolo[3,4-b]pyridin-6-one], less than 1 µM; under `O=C1C[C@](O)(C(F)(F)F)c2c(-c3ccccc3)n[nH]c2N1` [Compound 11, (+)-4-Hydroxy-3-phenyl-4-trifluoromethyl-1,4,5,7-tetrahydro-pyrazolo[3,4-b]pyridin-6-one], more than 10 µM.
For the molecule `O=C1CC(O)(C(F)(F)F)c2c(-c3ccc(F)cc3)n[nH]c2N1` (stereo not drawn) [Compound 17, 3-(4-Fluoro-phenyl)-4-hydroxy-4-trifluoromethyl-1,4,5,7-tetrahydro-pyrazolo[3,4-b]pyridin-6-one], the IC50 is less than 1 µM.
As for `Cc1ccc(-c2n[nH]c3c2C(O)(C(F)(F)F)CC(=O)N3)cc1` (stereo not drawn) [Compound 6, 4-Hydroxy-3-p-tolyl-4-trifluoromethyl-1,4,5,7-tetrahydro-pyrazolo[3,4-b]pyridin-6-one], the figure is less than 1 µM; as for `COc1cc(OC)cc(-c2n[nH]c3c2C(O)(C(F)(F)F)CC(=O)N3)c1` (stereo not drawn) [Compound 9, 3-(3,5-Dimethoxy-phenyl)-4-hydroxy-4-trifluoromethyl-1,4,5,7-tetrahydro-pyrazolo[3,4-b]pyridin-6-one], less than 1 µM; as for `O=C1CC(O)(C(F)(F)F)c2c(-c3cccc(Cl)c3)n[nH]c2N1` (stereo not drawn) [Compound 14, 3-(3-Chloro-phenyl)-4-hydroxy-4-trifluoromethyl-1,4,5,7-tetrahydro-pyrazolo[3,4-b]pyridin-6-one], less than 1 µM.
As for `O=C1CC(O)(C(F)(F)F)c2c(-c3c[nH]c4ccccc34)n[nH]c2N1` (stereo not drawn) [Compound 29, 4-Hydroxy-3-(1H-indol-3-yl)-4-trifluoromethyl-1,4,5,7-tetrahydro-pyrazolo[3,4-b]pyridin-6-one], the figure is more than 10 µM.
Under `O=C1CC(O)(C(F)(F)F)c2c(-c3ccccc3)nn(-c3ccccc3)c2N1` (stereo not drawn) [Compound 19, 4-Hydroxy-1,3-diphenyl-4-trifluoromethyl-1,4,5,7-tetrahydro-pyrazolo[3,4-b]pyridin-6-one] stands more than 10 µM; under `CCN1C(=O)CC(O)(C(F)(F)F)c2c(-c3ccccc3)n[nH]c21` (stereo not drawn) [Compound 34, 7-Ethyl-4-hydroxy-3-phenyl-4-trifluoromethyl-1,4,5,7-tetrahydro-pyrazolo[3,4-b]pyridin-6-one], more than 10 µM; under `Cn1nc(-c2ccc(Cl)cc2)c2c1NC(=O)CC2(O)C(F)(F)F` (stereo not drawn) [Compound 18, 3(4-Chloro-phenyl)-4-hydroxy-1-methyl-4-trifluoromethyl-1,4,5,7-tetrahydro-pyrazolo[3,4-b]pyridin-6-one], more than 10 µM.
`COc1ccc(-c2n[nH]c3c2C(O)(C(F)(F)F)CC(=O)N3)cc1` (stereo not drawn) [Compound 3, 4-Hydroxy-3-(4-methoxy-phenyl)-4-trifluoromethyl-1,4,5,7-tetrahydro-pyrazolo[3,4-b]pyridin-6-one]: the IC50 was less than 1 µM.
As for `COc1cccc(-c2n[nH]c3c2C(O)(C(F)(F)F)CC(=O)N3)c1` (stereo not drawn) [Compound 32, 4-Hydroxy-3-(3-methoxy-phenyl)-4-trifluoromethyl-1,4,5,7-tetrahydro-pyrazolo[3,4-b]pyridin-6-one], the figure is 1 to 10 µM.
Under `COc1ccc(-c2n[nH]c3c2C(O)(C(F)(F)F)CC(=O)N3)cc1OC` (stereo not drawn) [Compound 31, 3-(3,4-Dimethoxy-phenyl)-4-hydroxy-4-trifluoromethyl-1,4,5,7-tetrahydro-pyrazolo[3,4-b]pyridin-6-one] stands less than 1 µM.
Under `O=C1Nc2[nH]nc(-c3ccccc3)c2C(O)(C(F)(F)F)C1CCO` (stereo not drawn) [Compound 26, 4-Hydroxy-5-(2-hydroxy-ethyl)-3-phenyl-4-trifluoromethyl-1,4,5,7-tetrahydro-pyrazolo[3,4-b]pyridin-6-one] stands more than 10 µM.
Turning to `Cc1c(-c2n[nH]c3c2C(O)(C(F)(F)F)CC(=O)N3)cnn1C` (stereo not drawn) [Compound 33, 3-(1,5-Dimethyl-1H-pyrazol-4-yl)-4-hydroxy-4-trifluoromethyl-1,4,5,7-tetrahydro-pyrazolo[3,4-b]pyridin-6-one], the IC50 fell in the range of 1 to 10 µM.
As for `O=C1CC(O)(C(F)(F)F)c2c(-c3cccc(C(F)(F)F)c3)n[nH]c2N1` (stereo not drawn) [Compound 15, 4-Hydroxy-4-trifluoromethyl-3-(3-trifluoromethyl-phenyl)-1,4,5,7-tetrahydro-pyrazolo[3,4-b]pyridin-6-one], the figure is less than 1 µM; as for `O=C1C[C@@](O)(C(F)(F)F)c2c(-c3ccccc3)n[nH]c2N1` [Compound 10, (−)-4-Hydroxy-3-phenyl-4-trifluoromethyl-1,4,5,7-tetrahydro-pyrazolo[3,4-b]pyridin-6-one], less than 1 µM; as for `O=C1CC(O)(C(F)(F)F)c2c(Cc3ccccc3)n[nH]c2N1` (stereo not drawn) [Compound 28, 3-Benzyl-4-hydroxy-4-trifluoromethyl-1,4,5,7-tetrahydro-pyrazolo[3,4-b]pyridin-6-one], more than 10 µM.
With `O=C1CC(O)(C(F)(F)F)c2c(-c3ccccc3)n[nH]c2N1` (stereo not drawn) [Compound 2, 4-Hydroxy-3-phenyl-4-trifluoromethyl-1,4,5,7-tetrahydro-pyrazolo[3,4-b]pyridin-6-one], the IC50 is less than 1 µM.
With `O=C1CC(O)(c2cc(C(F)(F)F)cc(C(F)(F)F)c2)c2c(-c3ccccc3)n[nH]c2N1` (stereo not drawn) [Compound 35, 4-(3,5-Bis-trifluoromethyl-phenyl)-4-hydroxy-3-phenyl-1,4,5,7-tetrahydro-pyrazolo[3,4-b]pyridin-6-one], the IC50 is more than 10 µM.
As to `O=C1C[C@](O)(C(F)(F)F)c2c(-c3cccc(F)c3)n[nH]c2N1` [Compound 21, (+)-3-(3-Fluoro-phenyl)-4-hydroxy-4-trifluoromethyl-1,4,5,7-tetrahydro-pyrazolo[3,4-b]pyridin-6-one], the IC50 is more than 10 µM.
Under `COC1C(=O)Nc2[nH]nc(-c3ccccc3)c2C1(O)C(F)(F)F` (stereo not drawn) [Compound 27, 4-Hydroxy-5-methoxy-3-phenyl-4-trifluoromethyl-1,4,5,7-tetrahydro-pyrazolo[3,4-b]pyridin-6-one] stands more than 10 µM; under `O=C1CC(O)(C(F)(F)F)c2c(-c3cccc(F)c3)n[nH]c2N1` (stereo not drawn) [Compound 1, 3-(3-Fluoro-phenyl)-4-hydroxy-4-trifluoromethyl-1,4,5,7-tetrahydro-pyrazolo[3,4-b]pyridin-6-one], less than 1 µM.

The values are drawn from patent publication US9067938B2, “Pyrazolopyridinone derivatives as LPA receptor antagonists” (Merck Patent GmbH, priority 2010, dated 2015).
